# Source: PMC6672714 (Frontiers in Physiology, 2019)
# “Also recorded” adds a separate entry of the source. No end group written: not given here.
# Key:
# [1] = system: rat GH3 cells (CART mRNA); parameters: method as in Barrett et al., 2001; settings: ref Barrett et al., 2001; cited from earlier work
# [2] = system: cultured chick pituitary cells (GnRH1-induced CART mRNA); assay type: cell-based, chicken; settings: H89 10 μM; GnRH1 10 nM, 24 h; N = 4
# Protocol: (§1) As described in our recent studies ([Huang et al., 2014]; [Mo et al., 2015]), anterior pituitaries collected from 1-week-old chicks were sliced and digested by 0.25% trypsin at 37°C for 20 min. The dispersed pituitary cells were cultured at a density of 5 × 10^5 cells/well in Medium 199 supplemented with 15% fetal bovine serum in a Corning Cell BIND 48-well plates (Corning, Tewksbury, MA) at 37°C with 5% CO2. After 24-h culture, the medium was replaced with serum-free M199 medium and the cells were treated with chicken GnRH1/GnRH2 for the duration (12–48 h) or with increasing doses (0.1–100 nM) of each peptide. The total RNA was then extracted from cultured pituitary cells and the expression of CART and β-actin assayed by qPCR.
# (§2) “ND” indicates no statistical difference between the two groups. Each data point represents mean ± SEM of four replicates (N = 4). ^**p < 0.01 vs. control; ^#p < 0.01 vs. GnRH1 treatment (in the absence of drug). […] Total ERK2 in cell lysates was also examined and used as internal controls. Note: only a single band for pERK2 or total ERK2 (42 kDa) was detected in cell lysate, because ERK1 gene is lost in chicken genome ([Gerilechaogetu et al., 2009]). The representative sets of independent experimental duplicates are shown here.
# (§3) “ND” indicates no statistical difference between the two groups. Each data point represents mean ± SEM of four replicates (N = 4). ^**p < 0.01 vs. control. […] The β-actin in cell lysates were also examined and used as internal controls. The representative sets of independent experimental duplicates are shown here.
# CREB phosphorylation = CREB phosphorylation in cultured chick pituitary cells, Western blot; assay type: cell-based, chicken; settings: 10 nM, 5 min, duplicates
# Text: as §3
# ERK2 phosphorylation = ERK2 phosphorylation in cultured chick pituitary cells, Western blot; assay type: cell-based, chicken; settings: 10 nM, 10 min, duplicates
# Text: as §2
# chicken GnRHR2 [3] = assay: pGL3-CRE-luciferase reporter, cAMP/PKA signaling pathway, CHO cells expressing chicken GnRHR2; assay type: cell-based; settings: four replicates
# Text: (§4) Based on the reported cDNA sequences of chicken GnRHR1 and GnRHR2 (accession nos.: NM_204653; NM_001012609) ([Sun et al., 2001]; [Shimizu and Bedecarrats, 2006]), gene-specific primers were used to amplify the open reading frame from adult chicken anterior pituitaries using high-fidelity Taq DNA polymerase (TOYOBO, Japan). The amplified PCR products were cloned into the pcDNA3.1 (+) expression vector (Invitrogen) and sequenced. According to our previously established methods, the signaling property of each receptor was examined in Chinese hamster ovary (CHO) cells using pGL3-NFAT-RE-luciferase ([Wang et al., 2012]), pGL4-SRE-luciferase ([Mo et al., 2015]), and pGL3-CRE-luciferase reporter systems ([Wang et al., 2007]).
# (§5) Although two GnRH receptors (GnRHR1 and GnRHR2) have been identified in chickens ([Sun et al., 2001]; [Shimizu and Bedecarrats, 2006]; [Joseph et al., 2009]), their downstream signaling pathways have not been fully characterized.
# (§6) Figure 5 Activation of chicken GnRHR1 or GnRHR2 expressed in CHO cells by chicken GnRH1 or GnRH2, monitored by pGL3-NFAT-RE-luciferase (A,D), pGL4-SRE-luciferase (B,E), and pGL3-CRE-luciferease (C,F) reporter systems. […] Each data point represents mean ± SEM of four replicates (N = 4).
# chicken GnRHR1 [4] = assay: pGL4-SRE-luciferase reporter, MAPK/ERK signaling pathway, CHO cells expressing chicken GnRHR1; assay type: cell-based; settings: four replicates
# Text: as §4, §5, §6
# [5] = system: intact anterior pituitaries (CART secretion); assay: CART peptide secretion from intact anterior pituitaries incubated in vitro, Western blot; assay type: cell-based, chicken; settings: 4 h, intact chick pituitaries, N = 3
# Protocol: As described in our recent study ([Huang et al., 2014]), the intact anterior pituitaries collected from 1-week-old male chicks were washed with PBS and placed on a 48-well plate (NUNC) supplemented with 400 μl serum-free Medium 199 (Invitrogen). After 1-h incubation at 37°C, the medium was replaced by 300 μl serum-free Medium 199 containing different concentrations of chicken GnRH1 or GnRH2 (0.1–100 nM) and incubated for 4 h. […] Parallel blotting of β-actin and CART in pituitary tissue lysates was also conducted.
# The intracellular CART (iCART) and β-actin levels in the pituitary tissue lysate were also examined in parallel. […] Each data point represents mean ± SEM of three replicates (N = 3). ^*p < 0.05; ^**p < 0.01 vs. respective control. […] One representative set of Western blot is shown at the top of each graph.
# chicken GnRHR1 [6] = assay: pGL3-NFAT-RE-luciferase reporter, calcium signaling pathway, CHO cells expressing chicken GnRHR1; assay type: cell-based; settings: four replicates
# Text: as §4, §5, §6
# chicken GnRHR2 [7] = assay: three cell-based luciferase reporter assays, GnRHR2 (qualitative); settings: GnRHR2, CHO cells, calcium, MAPK/ERK and cAMP/PKA reporters
# Text: as §4, §5, §6
# chicken GnRHR1 [8] = assay: pGL3-CRE-luciferase reporter, cAMP/PKA signaling pathway, CHO cells expressing chicken GnRHR1; assay type: cell-based; settings: four replicates
# Text: as §4, §5, §6
# chicken GnRHR2 [9] = assay: pGL3-NFAT-RE-luciferase reporter, calcium signaling pathway, CHO cells expressing chicken GnRHR2; assay type: cell-based; settings: four replicates
# Text: as §4, §5, §6
# chicks (plasma CART) = assay: plasma CART levels after intraperitoneal administration in chicks, ELISA; assay type: in vivo, chicken; settings: 5 μg/chick, 30 min, male chicks
# Protocol: The levels of CART peptide in chicken plasma was then determined by competitive ELISA assay.
# Each data point represents mean ± SEM of seven 19-day-old male individuals (N = 7). ^*p < 0.05 vs. saline (control).
# chicken GnRHR2 [10] = assay: pGL4-SRE-luciferase reporter, MAPK/ERK signaling pathway, CHO cells expressing chicken GnRHR2; assay type: cell-based; settings: four replicates
# Text: as §4, §5, §6
# chicken GnRHR1 [11] = assay: three cell-based luciferase reporter assays, GnRHR1 (qualitative); settings: GnRHR1, CHO cells, calcium, MAPK/ERK and cAMP/PKA reporters
# Text: as §4, §5, §6
# [12] = system: cultured chick pituitary cells (CART mRNA); assay: CART mRNA expression in cultured chick pituitary cells, qPCR; assay type: cell-based, chicken; settings: N = 4
# Text: Chicken anterior pituitaries were collected either for cell culture, or for total RNA extraction. Total RNA was extracted from chicken tissues or cultured pituitary cells using RNAzol (Molecular Research Center, Cincinnati, OH) and reversely transcribed using M-MLV reverse transcriptase (TaKaRa). Reverse transcription (RT) samples were then used for quantitative real-time PCR (qPCR) assays to investigate the mRNA expression of target genes, as described in our recent studies ([Cai et al., 2015]; [Mo et al., 2015]).
# as §1
# The data were analyzed by the Student’s t-test (between two groups) or by one-way ANOVA followed by the Dunnett test in GraphPad Prism 5 (GraphPad Software, San Diego, CA). To validate our results, all experiments were repeated at least three times.
# The mRNA levels of CART were normalized by β-actin and expressed as the percentage of respective controls. Each value represents the mean ± SEM of four replicates (N = 4). ^*p < 0.05, ^**p < 0.01 vs. respective control. (E) RT-PCR detection of GnRHR2 expression in cultured chick pituitary cells (three replicates). RT was performed in the presence (+) or absence (−) of reverse transcriptase. Parallel PCR of β-actin was performed to serve as an internal control.
# [13] = system: cultured chick pituitary cells (CART mRNA); parameters: method as in Mo et al., 2015; settings: chickens; ref Mo et al., 2015; cited from earlier work
# rats (plasma CART) = system: rats (plasma CART); parameters: method as in Stanley et al., 2004; settings: intraperitoneal administration, ref Stanley et al., 2004; cited from earlier work
# [14] = system: ovine pars tuberalis cells (CART mRNA); parameters: method as in Barrett et al., 2001; settings: ref Barrett et al., 2001; cited from earlier work
# [15] = system: rat pituitary (CART secretion); parameters: method as in Kappeler et al., 2006; settings: rat pituitary upon perfusion; ref Kappeler et al., 2006; cited from earlier work
compound,measurement,setting,value
O=S(=O)(NCCNC/C=C/c1ccc(Br)cc1)c1cccc2cnccc12 [H89],effect on AC activator- or cAMP analog-stimulated CART mRNA levels,[1],abolished
same,effect on GnRH1-induced CART mRNA expression,[2],could abolish GnRH1-induced CART expression
"GnRH1: chicken gonadotropin-releasing hormone 1, synthesized using solid-phase Fmoc chemistry; an ortholog of mammalian GnRH (QHWSYGLQPG; ends and bridges not checked; UniProt P37042 24-33, looked up)",CREB phosphorylation,CREB phosphorylation,could enhance CREB phosphorylation
same,ERK2 phosphorylation,ERK2 phosphorylation,could enhance ERK2 phosphorylation
same,EC50,chicken GnRHR2 [3],2.15 nM
same,EC50,chicken GnRHR1 [4],270 nM
same,secretion of mature CART peptide,[5]; 0–100 nM,potently stimulated the secretion of mature CART peptide
same,"minimal effective concentration, CART secretion",[5],1 nM
same,EC50,chicken GnRHR1 [6],11.3 nM
same,activation of GnRHR2 (luciferase activity),chicken GnRHR2 [7],stimulate the luciferase activities dose-dependently; also recorded: potently activated by both GnRH1 and GnRH2
same,EC50,chicken GnRHR1 [8],69.3 nM
same,EC50,chicken GnRHR2 [9],1.54 nM
same,increase in plasma CART levels vs saline,"chicks (plasma CART); N = 7, p < 0.05",two-fold
same,plasma CART level,"chicks (plasma CART); N = 7, saline control 1.3 ng/ml, p < 0.05",2.7 ng/mL
same,EC50,chicken GnRHR2 [10],29.9 nM
same,activation of GnRHR1 (luciferase activity),chicken GnRHR1 [11],stimulate the luciferase activities dose-dependently
same,"effect on CART mRNA expression, dose dependence","[12]; 0–100 nM, 48 h, qPCR",stimulate CART expression dose-dependently
same,treatment time of maximal effect on CART mRNA expression,"[12]; 10 nM, qPCR",48 h
same,effect on CART mRNA expression,"[12]; 10 nM, time course (12–48 h), qPCR",induce CART expression in a time-dependent manner
same,"minimal effective dose, CART mRNA expression","[12]; 48 h, qPCR",1 nM
"CRH: corticotropin-releasing hormone, hypothalamic factor (literature results only)",potency as stimulator of pituitary CART secretion and expression,[13],potent stimulator of pituitary CART secretion and expression
same,plasma CART levels,rats (plasma CART),increase plasma CART levels in rats
"CCCCCCCCCCCCCC(=O)O[C@@H]1[C@@H](C)[C@@]2(O)[C@@H](C=C(CO)C[C@]3(O)C(=O)C(C)=C[C@@H]23)[C@@H]2C(C)(C)[C@]12OC(C)=O [PMA, phorbol-12-myristate-13-acetate, reference compound]",CART mRNA expression,[14],enhances CART mRNA expression
same,effect on CART mRNA expression,"[12]; PMA 100 nM, 48 h",could mimic GnRH1 action
"GnRH: GnRH perfused on rat pituitary in a previous study (form not specified) (QHWSYGLRPG; ends and bridges not checked; UniProt P07490 24-33, looked up)",CART secretion,[15],CART secretion is induced
